Measured values published in ChEMBL document CHEMBL4715920, “Novel Spiropiperidine Allosteric Modulators of Nicotinic Acetylcholine Receptors for Treating Central Nervous System Disorders” (ACS Med Chem Lett, 2021).

What follows are molecules tested against Neuronal acetylcholine receptor subunit alpha-7 (Homo sapiens, UniProt P36544) (assay: Positive allosteric modulation of recombinant human AChR alpha7 expressed in HEK cells co-expressing RIC-3 at -60 mV holding potential treated for 58 sec followed by acetylcholine applied for 1 sec measured potentiation effect by automated patch clamp electrophysiological method).
Format: cell-based

Sequence of Neuronal acetylcholine receptor subunit alpha-7 (P36544 whole entry): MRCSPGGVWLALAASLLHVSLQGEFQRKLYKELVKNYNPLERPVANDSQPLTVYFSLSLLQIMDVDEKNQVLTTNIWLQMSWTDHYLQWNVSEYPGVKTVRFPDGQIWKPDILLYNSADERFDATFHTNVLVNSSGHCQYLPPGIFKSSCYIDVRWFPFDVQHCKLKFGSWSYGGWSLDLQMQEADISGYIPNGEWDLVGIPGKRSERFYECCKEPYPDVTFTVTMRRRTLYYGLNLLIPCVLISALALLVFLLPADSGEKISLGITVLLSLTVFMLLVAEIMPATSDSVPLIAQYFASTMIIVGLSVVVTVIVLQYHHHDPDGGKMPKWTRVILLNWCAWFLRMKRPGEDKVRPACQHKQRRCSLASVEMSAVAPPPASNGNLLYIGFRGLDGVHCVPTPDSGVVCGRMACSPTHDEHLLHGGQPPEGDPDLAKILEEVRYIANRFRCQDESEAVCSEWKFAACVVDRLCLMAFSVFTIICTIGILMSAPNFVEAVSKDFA

EC50 [nM] | Structure (SMILES)
≤ 100 | COc1ccc(Cl)cc1SC[C@@H]1CC12CCN(S(N)(=O)=O)CC2
≤ 100 | COc1ccc(Cl)cc1NC(=O)[C@@H]1C(F)(F)C12CCN(S(N)(=O)=O)CC2
≤ 100 | COc1ccc(Cl)cc1NC[C@@H]1CC12CCN(S(N)(=O)=O)CC2
≤ 100 | NS(=O)(=O)N1CCC2(CC1)C(COc1ccnc(OC(F)F)c1)C2(F)F (stereo unspecified)
≤ 100 | NS(=O)(=O)N1CCC2(CC1)C[C@H]2COc1cccc(NCC(F)(F)F)n1
≤ 100 | NS(=O)(=O)N1CCC2(CC1)C(COc1noc(-c3ccccc3)n1)C2(F)F (stereo unspecified)
